According to PubChem BioAssay (NCI):
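Results reflect a 48-hour exposure of cells in 96-well plates to compound at five concentrations. The concentration for 50% growth inhibition is given as GI50. The concentration for full growth arrest is given as TGI.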

Legend:
Experiment in all cases: NCI anticancer screen, dose series, 48 h
[1] = system: COLO 205 colon
[2] = system: ACHN renal
[3] = system: M14 melanoma
[4] = system: NCI/ADR-RES ovarian
[5] = system: RXF 393 renal
[6] = system: SW-620 colon
[7] = system: BT-549 breast
[8] = system: HOP-92 NSCLC
[9] = system: SF-295 CNS
[10] = system: NCI-H23 lung
[11] = system: TK-10 renal
[12] = system: HCC-2998 colon
[13] = system: SK-MEL-5 melanoma
[14] = system: MDA-MB-435
[15] = system: A549 NSCLC
[16] = system: EKVX NSCLC
[17] = system: MCF7 breast
[18] = system: OVCAR-8 ovarian
[19] = system: RPMI-8226 leukemia
[20] = system: T-47D breast
[21] = system: UO-31 renal
[22] = system: IGROV1 ovarian
[23] = system: HCT-116 colon
[24] = system: U251 CNS
[25] = system: K-562 leukemia
[26] = system: HOP-62 NSCLC
[27] = system: CCRF-CEM leukemia
[28] = system: DU-145 prostate

## NC(=O)c1cc(Cl)ccc1NC(=O)/C=C/c1ccccc1
[1]
  GI50: 2.16 µM
  TGI: > 24.1 µM
[2]
  GI50: 4.75 µM
  TGI: > 100 µM
[3]
  GI50: 2.25 µM
  TGI: > 31.5 µM
[4]
  GI50: 2.63 µM
  TGI: > 26.9 µM
[5]
  GI50: 2.19 µM
  TGI: 6.53 µM
[6]
  GI50: 2.36 µM
  TGI: > 100 µM
[7]
  GI50: 4.66 µM
  TGI: > 100 µM
[8]
  GI50: 9.88 µM
  TGI: > 43 µM
[9]
  GI50: 2.58 µM
  TGI: > 25.6 µM
[10]
  GI50: 5.62 µM
  TGI: > 100 µM
[11]
  GI50: 7.31 µM
  TGI: > 95.1 µM
[12]
  GI50: 0.487 µM
  TGI: 2.79 µM
[13]
  GI50: 0.787 µM
[14]
  GI50: 0.618 µM
  TGI: 3.53 µM
[15]
  GI50: 4.18 µM
  TGI: > 100 µM
[16]
  GI50: 2.83 µM
  TGI: > 100 µM
[17]
  GI50: 1.78 µM
  TGI: > 100 µM
[18]
  GI50: 4.7 µM
  TGI: > 100 µM
[19]
  GI50: 2.86 µM
  TGI: > 100 µM
[20]
  GI50: 4.8 µM
  TGI: > 100 µM
[21]
  GI50: 10.1 µM
  TGI: > 100 µM
[22]
  GI50: 3.03 µM
  TGI: > 100 µM
[23]
  GI50: 2.66 µM
  TGI: > 100 µM
[24]
  GI50: 2.95 µM
  TGI: > 35.4 µM
[25]
  GI50: 0.806 µM
  TGI: > 23.1 µM
[26]
  GI50: 7.79 µM
  TGI: > 41.6 µM
[27]
  GI50: 2.96 µM
  TGI: > 100 µM
[28]
  GI50: 3.3 µM
  TGI: > 24.4 µM
